From ChEMBL document CHEMBL5500343, “Activity refinement of aryl amino acetamides that target the P. falciparum STAR-related lipid transfer 1 protein” (Eur J Med Chem, 2024)
pEC50, pKd: −log10 of the molar value. Converted amounts (≈) assume the structure as drawn. Each block holds one compound with its values, some of them ahead of it. The source made the active and inactive calls. The rule behind the calls is not given here.

What was measured:
[1] = test system: HepG2; assay: Cytotoxicity against human HepG2 cells assessed as reduction in cell viability incubated for 48 hrs by Cell Titer-Glo assay; format: functional, cell-based; details: HepG2, 48 h
[2] = Toxicity in mouse infected with Plasmodium berghei ANKA assessed as change in body weight at 50 mg/kg,po bid administrated for 72 hrs and measured after 24 hrs post last dose; format: organism-based; details: in vivo
[3] = Lipophilicity, LogD of compound in 1-Octanol and PBS at pH 7.4 at 7.5 uM incubated for 2 hrs shake flask method based LC-MS/MS analysis; format: physicochemical; details: 1-octanol/PBS
[4] = Kinetic aqueous solubility of the compound in PBS at pH 7.4 incubated for 2 hr under shaking condition by shake flask based UV reader plate analysis; format: physicochemical; details: read-out: Kinetic_solubility
[5] = test system: Plasmodium falciparum; assay: Antimalarial activity against asexual blood stage Plasmodium falciparum 3D7 assessed as reduction in parasite growth incubated for 72 hrs by LDH assay; format: functional, organism-based; details: 3D7, 72 h
[6] = Intrinsic clearance in rat hepatocyte measured per 10^6 cells at 1 uM incubated upto 90 mins by LC-MS/MS analysis; format: ADME, cell-based; details: rat hepatocytes, read-out: CLH
[7] = Binding affinity to recombinant Plasmodium falciparum START1 assessed as dissociation constant by isothermal titration calorimetry
[8] = Apparent half life in Swiss mouse at 50 mg/kg,po administration measured for 4 to 24 hrs by LC-MS/MS analysis; format: ADME, organism-based; details: in vivo, time 4-24 hrs, read-out: t1/2(app) (converted)
[9] = Drug concentration in Swiss mouse plasma at 50 mg/kg,po administration measured after 15 mins by LC-MS/MS analysis; format: ADME, organism-based
[10] = Toxicity in Swiss mouse at 50 mg/kg,po administration measured upto 24 hrs by LC-MS/MS analysis; format: organism-based; details: in vivo
[11] = Intrinsic clearance in human liver microsomes at 1 uM incubated upto 60 mins in presence of NADPH by LC-MS/MS analysis; format: ADME, Microsome; details: read-out: CLH
[12] = test system: Plasmodium berghei; assay: Antimalarial activity against Plasmodium berghei ANKA infected in mouse assessed as reduction of parasitaemia at 50 mg/kg,po bid administrated for 72 hrs and measured after 24 hrs post last dose by Giemsa staining based microscopic analysis; format: functional, organism-based; details: time 96.0 hrs
[13] = Drug concentration in Swiss mouse plasma at 50 mg/kg,po administration measured after 12 hrs by LC-MS/MS analysis; format: ADME, organism-based; details: in vivo
[14] = test system: Plasmodium falciparum; assay: Binding affinity to recombinant Plasmodium falciparum START1 assessed as change in entropy at 10 uM by isothermal titration calorimetry
[15] = test system: Plasmodium falciparum; assay: Binding affinity to recombinant Plasmodium falciparum START1 assessed as change in enthalpy at 10 uM by isothermal titration calorimetry
[16] = Drug concentration in Swiss mouse plasma at 50 mg/kg,po administration measured upto 24 hrs by LC-MS/MS analysis; format: ADME, organism-based; details: in vivo
[17] = test system: Plasmodium falciparum; assay: Antimalarial activity against Plasmodium falciparum Dd2 assessed as reduction in parasite growth incubated for 72 hrs by [3H]-hypoxanthine incorporation assay; format: functional, organism-based
[18] = test system: Plasmodium falciparum; assay: Antimalarial activity against MMV006833 resistant Plasmodium falciparum 3D7 assessed as reduction in parasite growth incubated for 72 hrs by LDH assay; format: functional, organism-based; details: 3D7, 72 h
[19] = test system: Plasmodium falciparum; assay: Antimalarial activity against MMV-048 resistant Plasmodium falciparum Dd2 harboring PI4K S743T mutant assessed as reduction in parasite growth incubated for 72 hrs by [3H]-hypoxanthine incorporation assay; format: functional, organism-based
[20] = test system: Plasmodium falciparum; assay: Antimalarial activity against DSM-265 resistant Plasmodium falciparum Dd2 harboring DHODH C276F mutant assessed as reduction in parasite growth incubated for 72 hrs by [3H]-hypoxanthine incorporation assay; format: functional, organism-based
[21] = test system: Plasmodium falciparum; assay: Antimalarial activity against chloroquine and mefloquine resistant Plasmodium falciparum K1 assessed as reduction in parasite growth incubated for 72 hrs by [3H]-hypoxanthine incorporation assay; format: functional, organism-based
[22] = test system: Plasmodium falciparum; assay: Antimalarial activity against MMV006833 resistant Plasmodium falciparum 3D7 harboring START1 N309K mutant assessed as reduction in parasite growth incubated for 72 hrs by LDH assay; format: functional, organism-based; details: 3D7, 72 h
[23] = test system: Plasmodium falciparum; assay: Antimalarial activity against asexual blood stage Plasmodium falciparum Dd2-B2 assessed as reduction in recrudescence measured for 60 days by flow cytometry; format: functional, organism-based; details: time 60.0 day
[24] = test system: Plasmodium falciparum; assay: Antimalarial activity against chloroquine and mefloquine resistant Plasmodium falciparum NF54 assessed as reduction in parasite growth incubated for 72 hrs by [3H]-hypoxanthine incorporation assay; format: functional, organism-based
[25] = test system: Plasmodium falciparum; assay: Antimalarial activity against KAF-156 resistant Plasmodium falciparum Dd2 harboring CARL I1139K mutant assessed as reduction in parasite growth incubated for 72 hrs by [3H]-hypoxanthine incorporation assay; format: functional, organism-based
[26] = test system: Plasmodium falciparum; assay: Antimalarial activity against MMV006833 resistant Plasmodium falciparum 3D7 harboring START1 N330K mutant assessed as reduction in parasite growth incubated for 72 hrs by LDH assay; format: functional, organism-based; details: 3D7, 72 h
[27] = test system: Plasmodium falciparum; assay: Antimalarial activity against chloroquine and mefloquine resistant Plasmodium falciparum 7G8 assessed as reduction in parasite growth incubated for 72 hrs by [3H]-hypoxanthine incorporation assay; format: functional, organism-based
[28] = test system: Plasmodium falciparum; assay: Antimalarial activity against chloroquine and mefloquine resistant Plasmodium falciparum RF12 assessed as reduction in parasite growth incubated for 72 hrs by [3H]-hypoxanthine incorporation assay; format: functional, organism-based
[29] = test system: Plasmodium falciparum; assay: Antimalarial activity against asexual blood stage Plasmodium falciparum Dd2-F6 assessed as minimum inoculum of resistance at 2.2 times IC50 measured for 35 days by SYBR Green I dye based flow cytometry; format: functional; details: time 35 day
[30] = test system: Plasmodium falciparum; assay: Antimalarial activity against ELQ-300 resistant Plasmodium falciparum Dd2 harboring Cyt b I22L mutant assessed as reduction in parasite growth incubated for 72 hrs by [3H]-hypoxanthine incorporation assay; format: functional, organism-based
[31] = test system: Plasmodium falciparum; assay: Antimalarial activity against atovaquone resistant Plasmodium falciparum TM90-C2B assessed as reduction in parasite growth incubated for 72 hrs by [3H]-hypoxanthine incorporation assay; format: functional, organism-based
[32] = test system: Plasmodium falciparum; assay: Antimalarial activity against DDD-107498 resistant Plasmodium falciparum Dd2 harboring eEF2 Y86N mutant assessed as reduction in parasite growth incubated for 72 hrs by [3H]-hypoxanthine incorporation assay; format: functional, organism-based
[33] = test system: Plasmodium falciparum; assay: Antimalarial activity against asexual blood stage Plasmodium falciparum Dd2-B2 assessed as reduction in parasite growth measured for 60 days by flow cytometry; format: functional; details: Dd2-B2, 1440 h, time 60 day
[34] = test system: Plasmodium falciparum; assay: Antimalarial activity against asexual blood stage Plasmodium falciparum Dd2-F6 assessed as minimum inoculum of resistance at 5 times IC50 measured for 35 days by SYBR Green I dye based flow cytometry; format: functional; details: time 35 day

logD at 2 h, 7.5 µM [3]: 3.2 | solubility kinetic at 2 h [4]: 60 µM (≈ 28.4 µg/mL) | hepatocyte CLint at 1 µM [6]: 68 µL/min/1e6 cells | half-life [8]: 5.9 h | concentration at 0.25 h [9]: ~1200 nM | microsomal CLint at 1 µM [11]: > 462 µL/min/mg | Drug uptake [13]: Active | -TdeltaS [14]: 0.8 kcal/mol | deltaH [15]: -11.6 kcal/mol | Drug uptake [16]: Active
Compound: CC(C)(Nc1ccc(Cl)c(S(=O)(=O)N2CCOCC2)c1)C(=O)Nc1cncc(Cl)c1
pEC50 [1]: < 4.40 | Activity [2]: Non-Toxic | pEC50 [5]: 7.82 | pKd [7]: 7.85 | Activity [10]: Non-Toxic | Activity [12]: inactive

Compound: CC(C)(Nc1ccc(Cl)c(S(=O)(=O)N2CCOCC2)c1)C(=O)Nc1ccc(F)c(Cl)c1
pEC50 [17]: 9.00 | pEC50 [18]: 8.40 | pEC50 [19]: 9.00 | pEC50 [1]: 4.50 | pEC50 [20]: 9.00 | logD at 2 h, 7.5 µM [3]: 3.9 | pEC50 [21]: 8.70 | pEC50 [22]: 5.49 | solubility kinetic at 2 h [4]: 16 µM (≈ 7.85 µg/mL) | pEC50 [5]: 8.30 | Activity [23]: inactive | pEC50 [24]: 8.70 | hepatocyte CLint at 1 µM [6]: > 92 µL/min/1e6 cells | pEC50 [25]: 9.00 | pKd [7]: 8.00 | pEC50 [26]: 5.66 | pEC50 [27]: 9.00 | microsomal CLint at 1 µM [11]: > 462 µL/min/mg | pEC50 [28]: 9.00 | Activity [29]: 1.9 10^7No_unit | pEC50 [30]: 9.00 | pEC50 [31]: 9.00 | pEC50 [32]: 9.00 | EC90 [33]: 9.7 nM

Compound: Cc1cc(Nc2ccc(S(F)(F)(F)(F)F)cc2)n2nc(C(C)(F)F)nc2n1 [DSM-265]
pEC50 [17]: 7.62 | pEC50 [20]: 6.33 | Activity [34]: 1.6 10^6No_unit
